# Laboratory results published in ChEMBL document CHEMBL1134243, “2-[N1-2-pyrimidyl-aminobenzenesulfonamido] ethyl 4-bis(2-chloroethyl) aminophenyl butyrate: a potent antitumor agent” (Bioorg Med Chem Lett, 2001).
# Legend:
# [1] = In vivo antitumor activity against murine S-180 sarcoma at a dose of 6.8 mg/kg administered intraperitoneally 7qd in mice expressed as percent inhibition; format: functional; conditions: Mus musculus, S-180, ip, route intraperitoneal
# [2] = Antitumor activity against murine S-180 sarcoma at dose of 0.016(mmol/kg); format: functional, Mus musculus
# [3] = In vivo antitumor activity against murine S-180 sarcoma at a dose of 1.3 mg/kg administered intraperitoneally 7qd in mice; Body wt initial/Final = 19.9/23.4; format: functional, Mus musculus; conditions: route intraperitoneal
# Mus musculus [4] = assay: Antitumor activity against murine S-180 sarcoma at dose of LD50 X 1/10 equal toxicity; format: functional
# [5] = Antitumor activity against murine S-180 sarcoma at dose of 0.008(mmol/kg); format: functional, Mus musculus
# [6] = Lethal dose at a concentration of 0.163 mmol/kg in mice administered intraperitoneally; format: toxicity, organism-based; conditions: mouse, in vivo, ip
# [7] = Antitumor activity against murine S-180 sarcoma at dose of 0.004(mmol/kg); format: functional, Mus musculus
# [8] = Therapeutic Index was determined; conditions: read-out: TI
# [9] = In vivo antitumor activity against murine S-180 sarcoma at a dose of 2.5 mg/kg administered intraperitoneally 7qd in mice; Body wt initial/Final = 20.0/21.3; format: functional, Mus musculus; conditions: route intraperitoneal
# [10] = In vivo antitumor activity against murine S-180 sarcoma at a dose of 1.3 mg/kg administered intraperitoneally 7qd in mice expressed effect on tumor weight; format: functional, Mus musculus; conditions: route intraperitoneal
# Mus musculus [11] = assay: Antitumor activity against murine S-180 sarcoma at dose of LD50 X 1/20 equal toxicity; format: functional
# [12] = In vivo antitumor activity against murine S-180 sarcoma at a dose of 1.3 mg/kg administered intraperitoneally 7qd in mice expressed as percent inhibition; format: functional; conditions: Mus musculus, S-180, ip, route intraperitoneal
# [13] = In vivo antitumor activity against murine S-180 sarcoma at a dose of 6.8 mg/kg administered intraperitoneally 7qd in mice; Body wt initial/Final = 19.8/18.4; format: functional, Mus musculus; conditions: route intraperitoneal
# [14] = In vivo antitumor activity against murine S-180 sarcoma at a dose of 5 mg/kg administered intraperitoneally 7qd in mice expressed as percent inhibition; format: functional; conditions: Mus musculus, S-180, ip, route intraperitoneal
# [15] = In vivo antitumor activity against murine S-180 sarcoma at a dose of 5 mg/kg administered intraperitoneally 7qd in mice; Body wt initial/Final = 19.7/19.1; format: functional, Mus musculus; conditions: route intraperitoneal
# [16] = In vivo antitumor activity against murine S-180 sarcoma at a dose of 1.3 mg/kg administered intraperitoneally 7qd in Male TA1 mice; 10 survived out of 10 mice; format: functional, Mus musculus; conditions: route intraperitoneal
# [17] = In vivo antitumor activity against murine S-180 sarcoma at a dose of 2.5 mg/kg administered intraperitoneally 7qd in mice expressed as percent inhibition; format: functional; conditions: Mus musculus, S-180, ip, route intraperitoneal
# [18] = In vivo antitumor activity against murine S-180 sarcoma at a dose of 6.8 mg/kg administered intraperitoneally 7qd in mice expressed effect on tumor weight; format: functional, Mus musculus; conditions: route intraperitoneal
# [19] = In vivo antitumor activity against murine S-180 sarcoma at a dose of 2.5 mg/kg administered intraperitoneally 7qd in mice expressed effect on tumor weight; format: functional, Mus musculus; conditions: route intraperitoneal
# [20] = Antitumor activity against murine S-180 sarcoma at dose of 0.022(mmol/kg); format: functional, Mus musculus
# [21] = In vivo antitumor activity against murine S-180 sarcoma at a dose of 2.5 mg/kg administered intraperitoneally 7qd in Male TA1 mice; 10 survived out of 10 mice; format: functional, Mus musculus; conditions: route intraperitoneal
# [22] = In vivo antitumor activity against murine S-180 sarcoma at a dose of 5 mg/kg administered intraperitoneally 7qd in Male TA1 mice; 9 survived out of 10 mice; format: functional, Mus musculus; conditions: route intraperitoneal
# Mus musculus [23] = assay: Antitumor activity against murine S-180 sarcoma at dose of LD50 X 1/40 equal toxicity; format: functional
# [24] = In vivo antitumor activity against murine S-180 sarcoma at a dose of 6.8 mg/kg administered intraperitoneally 7qd in Male TA1 mice; 9 survived out of 10 mice; format: functional, Mus musculus; conditions: route intraperitoneal
# [25] = In vivo antitumor activity against murine S-180 sarcoma at a dose of 5 mg/kg administered intraperitoneally 7qd in mice expressed effect on tumor weight; format: functional, Mus musculus; conditions: route intraperitoneal
# [26] = In vivo antitumor activity against murine S-180 sarcoma at a dose of 3.3 mg/kg administered intraperitoneally 7qd in Male TA1 mice; 10 survived out of 10 mice; format: functional, Mus musculus; conditions: route intraperitoneal
# [27] = In vivo antitumor activity against murine S-180 sarcoma at a dose of 13 mg/kg administered intraperitoneally 7qd in mice expressed as percent inhibition; format: functional; conditions: Mus musculus, S-180, ip, route intraperitoneal
# [28] = In vivo antitumor activity against murine S-180 sarcoma at a dose of 9.6 mg/kg administered intraperitoneally 7qd in Male TA1 mice; 9 survived out of 10 mice; format: functional, Mus musculus; conditions: route intraperitoneal
# [29] = In vivo antitumor activity against murine S-180 sarcoma at a dose of 6.5 mg/kg administered intraperitoneally 7qd in Male TA1 mice; 10 survived out of 10 mice; format: functional, Mus musculus; conditions: route intraperitoneal
# [30] = In vivo antitumor activity against murine S-180 sarcoma at a dose of 4.8 mg/kg administered intraperitoneally 7qd in mice expressed effect on tumor weight; format: functional, Mus musculus; conditions: route intraperitoneal
# [31] = In vivo antitumor activity against murine S-180 sarcoma at a dose of 4.8 mg/kg administered intraperitoneally 7qd in mice expressed as percent inhibition; format: functional; conditions: Mus musculus, S-180, ip, route intraperitoneal
# [32] = In vivo antitumor activity against murine S-180 sarcoma at a dose of 4.8 mg/kg administered intraperitoneally 7qd in mice; Body wt initial/Final = 19.8/20.7; format: functional, Mus musculus; conditions: route intraperitoneal
# [33] = In vivo antitumor activity against murine S-180 sarcoma at a dose of 3.3 mg/kg administered intraperitoneally 7qd in mice expressed effect on tumor weight; format: functional, Mus musculus; conditions: route intraperitoneal
# [34] = In vivo antitumor activity against murine S-180 sarcoma at a dose of 13 mg/kg administered intraperitoneally 7qd in mice expressed effect on tumor weight; format: functional, Mus musculus; conditions: route intraperitoneal
# [35] = Lethal dose at a concentration of 0.225 mmol/kg in mice administered intraperitoneally; format: toxicity, organism-based; conditions: mouse, in vivo, ip
# [36] = In vivo antitumor activity against murine S-180 sarcoma at a dose of 6.5 mg/kg administered intraperitoneally 7qd in mice expressed as percent inhibition; format: functional; conditions: Mus musculus, S-180, ip, route intraperitoneal
# [37] = In vivo antitumor activity against murine S-180 sarcoma at a dose of 3.3 mg/kg administered intraperitoneally 7qd in mice expressed as percent inhibition; format: functional; conditions: Mus musculus, S-180, ip, route intraperitoneal
# [38] = In vivo antitumor activity against murine S-180 sarcoma at a dose of 6.5 mg/kg administered intraperitoneally 7qd in mice; Body wt initial/Final = 19.8/19.5; format: functional, Mus musculus; conditions: route intraperitoneal
# [39] = In vivo antitumor activity against murine S-180 sarcoma at a dose of 6.5 mg/kg administered intraperitoneally 7qd in mice expressed effect on tumor weight; format: functional, Mus musculus; conditions: route intraperitoneal
# [40] = In vivo antitumor activity against murine S-180 sarcoma at a dose of 13 mg/kg administered intraperitoneally 7qd in Male TA1 mice; 9 survived out of 10 mice; format: functional, Mus musculus; conditions: route intraperitoneal
# [41] = In vivo antitumor activity against murine S-180 sarcoma at a dose of 9.6 mg/kg administered intraperitoneally 7qd in mice; Body wt initial/Final = 19.6/18.3; format: functional, Mus musculus; conditions: route intraperitoneal
# [42] = In vivo antitumor activity against murine S-180 sarcoma at a dose of 9.6 mg/kg administered intraperitoneally 7qd in mice expressed as percent inhibition; format: functional; conditions: Mus musculus, S-180, ip, route intraperitoneal
# [43] = In vivo antitumor activity against murine S-180 sarcoma at a dose of 4.8 mg/kg administered intraperitoneally 7qd in Male TA1 mice; 10 survived out of 10 mice; format: functional, Mus musculus; conditions: route intraperitoneal
# [44] = In vivo antitumor activity against murine S-180 sarcoma at a dose of 2.5 mg/kg administered intraperitoneally 7qd in mice; Body wt initial/Final = 19.9/23.4; format: functional, Mus musculus; conditions: route intraperitoneal
# [45] = In vivo antitumor activity against murine S-180 sarcoma at a dose of 9.6 mg/kg administered intraperitoneally 7qd in mice expressed effect on tumor weight; format: functional, Mus musculus; conditions: route intraperitoneal
# [46] = In vivo antitumor activity against murine S-180 sarcoma at a dose of 13 mg/kg administered intraperitoneally 7qd in mice; Body wt initial/Final = 19.8/18.0; format: functional, Mus musculus; conditions: route intraperitoneal
# [47] = In vivo antitumor activity against murine S-180 sarcoma at a dose of 3.3 mg/kg administered intraperitoneally 7qd in mice; Body wt initial/Final = 19.6/22.5; format: functional, Mus musculus; conditions: route intraperitoneal
compound,measurement,setting,value
O=C(O)CCCc1ccc(N(CCCl)CCCl)cc1 [CHLORAMBUCIL],inhibition in vivo at 6.8 mg/kg,[1],77.4%
same,Antitumour activity,[2],73.3
same,Body weight In. / Fi.,[3],19.9 g
same,LD50 x 1/10,Mus musculus [4],73.3
same,Antitumour activity,[5],52.9
same,LD50,[6],49.6 mg/kg
same,Antitumour activity,[7],37.1
same,selectivity ratio,[8],22.8
same,Body weight In. / Fi.,[9],20 g
same,Tumor weight,[10],1.39
same,LD50 x 1/20,Mus musculus [11],52.9
same,inhibition in vivo at 1.3 mg/kg,[12],37.1%
same,Body weight In. / Fi.,[13],19.8 g
same,inhibition in vivo at 5 mg/kg,[14],73.3%
same,Body weight In. / Fi.,[15],19.7 g
same,Mice In. / Fi.,[16],10
same,inhibition in vivo at 2.5 mg/kg,[17],52.9%
same,Tumor weight,[18],0.5
same,Tumor weight,[19],1.04
same,Antitumour activity,[20],77.4
same,Mice In. / Fi.,[21],10
same,Mice In. / Fi.,[22],9
same,LD50 x 1/40,Mus musculus [23],37.1
same,Mice In. / Fi.,[24],9
same,Tumor weight,[25],0.59
Nc1ccc(S(=O)(=O)N(CCOC(=O)CCCc2ccc(N(CCCl)CCCl)cc2)c2ncccn2)cc1,Antitumour activity,[2],76.9
same,Mice In. / Fi.,[26],10
same,inhibition in vivo at 13 mg/kg,[27],81.5%
same,Mice In. / Fi.,[28],9
same,Mice In. / Fi.,[29],10
same,LD50 x 1/10,Mus musculus [4],81.5
same,Tumor weight,[30],0.81
same,Antitumour activity,[5],63.4
same,Antitumour activity,[7],47.9
same,inhibition in vivo at 4.8 mg/kg,[31],63.4%
same,Body weight In. / Fi.,[32],19.8 g
same,selectivity ratio,[8],47.5
same,Tumor weight,[33],1.09
same,Tumor weight,[34],0.41
same,LD50 x 1/20,Mus musculus [11],74.2
same,LD50,[35],131 mg/kg
same,inhibition in vivo at 6.5 mg/kg,[36],74.2%
same,inhibition in vivo at 3.3 mg/kg,[37],50.7%
same,Body weight In. / Fi.,[38],19.8 g
same,Tumor weight,[39],0.57
same,inhibition in vivo at 2.5 mg/kg,[17],48%
same,Mice In. / Fi.,[40],9
same,Body weight In. / Fi.,[41],19.6 g
same,Tumor weight,[19],1.15
same,Antitumour activity,[20],81.5
same,Mice In. / Fi.,[21],10
same,inhibition in vivo at 9.6 mg/kg,[42],76.9%
same,Mice In. / Fi.,[43],10
same,Body weight In. / Fi.,[44],19.9 g
same,Tumor weight,[45],0.51
same,LD50 x 1/40,Mus musculus [23],50.7
same,Body weight In. / Fi.,[46],19.8 g
same,Body weight In. / Fi.,[47],19.6 g
